# Assay results from patent publication US20260013504A1, “HERBICIDAL MIXTURE, HERBICIDAL COMPOSITION, METHOD, USE, AND KITS FOR CONTROLLING UNDESIRABLE VEGETATION” (ADAMA AGAN LTD., priority 2022, published 2026).
# How the values were obtained:
# Type in all cases: in vivo
# [1] = system: Aegilops tauschii; experiment: Pot experiment, soil treatment, control of Aegilops tauschii (fresh weight, Colby); settings: mixtures: both AIs at these rates, after 35 days
# [2] = system: Lolium multiflorum Lamk; experiment: Pot experiment, soil treatment, control of Lolium multiflorum Lamk (fresh weight, Colby); settings: mixtures: both AIs at these rates, after 35 days
# [3] = system: Bromus japonicus; experiment: Pot experiment, soil treatment, control of Bromus japonicus (fresh weight, Colby); settings: mixtures: both AIs at these rates, after 35 days
# [4] = system: Galium aparine; experiment: Pot experiment, soil treatment, control of Galium aparine (fresh weight, Colby)
# [5] = system: Lithospermum arvense; experiment: Pot experiment, soil treatment, control of Lithospermum arvense (fresh weight, Colby)
# [6] = system: Solanum nigrum; experiment: Pot experiment (glass greenhouse), soil treatment, control of Solanum nigrum (fresh weight, Colby)
# [7] = g ai/ha: pyroxasulfone 11.25, fluorochloridone 31.25, aclonifen 150, diflufenican 14.0625, terbutryn 140.625
# [8] = g ai/ha: pyroxasulfone 22.5, fluorochloridone 62.5, aclonifen 300, diflufenican 28.125, terbutryn 281.25
# [9] = g ai/ha: pyroxasulfone 45, fluorochloridone 125, aclonifen 600, diflufenican 56.25, terbutryn 562.5
# [10] = g ai/ha: pyroxasulfone 90, fluorochloridone 250, aclonifen 1200, diflufenican 112.5, terbutryn 1125
# [11] = g ai/ha: pyroxasulfone 180, fluorochloridone 500, aclonifen 2400, diflufenican 225, terbutryn 2250
# [12] = g ai/ha: pyroxasulfone 360, fluorochloridone 1000, aclonifen 4800, diflufenican 450, terbutryn 4500
compound,measurement,setting,value
"Cn1nc(C(F)(F)F)c(CS(=O)(=O)C2=NOC(C)(C)C2)c1OC(F)F [pyroxasulfone, 3-[(5-difluoromethoxy-1-methyl-3-trifluoromethylpyrazol-4-yl)methylsulfonyl]-4,5-dihydro-5,5-di methyl-1,2-isoxazole]",Measured fresh weight inhibition rate (%),[1]; [7],4.9%
same,Measured fresh weight survival rate (%) - E,[1]; [7],95.1%
same,Measured fresh weight inhibition rate (%),[1]; [8],11.6%
same,Measured fresh weight survival rate (%) - E,[1]; [8],88.4%
same,Measured fresh weight inhibition rate (%),[1]; [9],47.6%
same,Measured fresh weight survival rate (%) - E,[1]; [9],52.4%
same,Measured fresh weight inhibition rate (%),[1]; [10],50.0%
same,Measured fresh weight survival rate (%) - E,[1]; [10],50.0%
same,Measured fresh weight inhibition rate (%),[1]; [11],78.7%
same,Measured fresh weight survival rate (%) - E,[1]; [11],21.3%
same,Measured fresh weight inhibition rate (%),[1]; [12],97.6%
same,Measured fresh weight survival rate (%) - E,[1]; [12],2.4%
same,Measured fresh weight inhibition rate (%),[2]; [7],68.2%
same,Measured fresh weight survival rate (%) - E,[2]; [7],31.8%
same,Measured fresh weight inhibition rate (%),[2]; [8],94.8%
same,Measured fresh weight survival rate (%) - E,[2]; [8],5.2%
same,Measured fresh weight inhibition rate (%),[2]; [9],100.0%
same,Measured fresh weight survival rate (%) - E,[2]; [9],0.0%
same,Measured fresh weight inhibition rate (%),[2]; [10],100.0%
same,Measured fresh weight survival rate (%) - E,[2]; [10],0.0%
same,Measured fresh weight inhibition rate (%),[2]; [11],100.0%
same,Measured fresh weight survival rate (%) - E,[2]; [11],0.0%
same,Measured fresh weight inhibition rate (%),[2]; [12],100.0%
same,Measured fresh weight survival rate (%) - E,[2]; [12],0.0%
same,Measured fresh weight inhibition rate (%),[3]; [7],74.2%
same,Measured fresh weight survival rate (%) - E,[3]; [7],25.8%
same,Measured fresh weight inhibition rate (%),[3]; [8],88.7%
same,Measured fresh weight survival rate (%) - E,[3]; [8],11.3%
same,Measured fresh weight inhibition rate (%),[3]; [9],100.0%
same,Measured fresh weight survival rate (%) - E,[3]; [9],0.0%
same,Measured fresh weight inhibition rate (%),[3]; [10],100.0%
same,Measured fresh weight survival rate (%) - E,[3]; [10],0.0%
same,Measured fresh weight inhibition rate (%),[3]; [11],100.0%
same,Measured fresh weight survival rate (%) - E,[3]; [11],0.0%
same,Measured fresh weight survival rate (%) - E,[4]; 11.25 g ai/ha,67.1%
same,Measured fresh weight survival rate (%) - E,[4]; 22.5 g ai/ha,21.9%
same,Measured fresh weight survival rate (%) - E,[4]; 45 g ai/ha,4.1%
same,Measured fresh weight survival rate (%) - E,[4]; 90 g ai/ha,4.1%
same,Measured fresh weight survival rate (%) - E,[4]; 180 g ai/ha,0.0%
same,inhibition at 11.25 g/ha,"[4]; Galium aparine, soil, 11.25 g ai/ha, read-out: Measured fresh weight inhibition rate (%)",32.9%
same,inhibition at 22.5 g/ha,"[4]; Galium aparine, soil, 22.5 g ai/ha, read-out: Measured fresh weight inhibition rate (%)",78.1%
same,inhibition at 45 g/ha,"[4]; Galium aparine, soil, 45 g ai/ha, read-out: Measured fresh weight inhibition rate (%)",95.9%
same,inhibition at 90 g/ha,"[4]; Galium aparine, soil, 90 g ai/ha, read-out: Measured fresh weight inhibition rate (%)",95.9%
same,inhibition at 180 g/ha,"[4]; Galium aparine, soil, 180 g ai/ha, read-out: Measured fresh weight inhibition rate (%)",100%
same,Measured fresh weight survival rate (%) - E,[5]; 11.25 g ai/ha,63.8%
same,Measured fresh weight survival rate (%) - E,[5]; 22.5 g ai/ha,55.1%
same,Measured fresh weight survival rate (%) - E,[5]; 45 g ai/ha,27.5%
same,Measured fresh weight survival rate (%) - E,[5]; 90 g ai/ha,21.7%
same,Measured fresh weight survival rate (%) - E,[5]; 180 g ai/ha,10.1%
same,inhibition at 11.25 g/ha,"[5]; Buglossoides arvensis, soil, 11.25 g ai/ha, read-out: Measured fresh weight inhibition rate (%)",36.2%
same,inhibition at 22.5 g/ha,"[5]; Buglossoides arvensis, soil, 22.5 g ai/ha, read-out: Measured fresh weight inhibition rate (%)",44.9%
same,inhibition at 45 g/ha,"[5]; Buglossoides arvensis, soil, 45 g ai/ha, read-out: Measured fresh weight inhibition rate (%)",72.5%
same,inhibition at 90 g/ha,"[5]; Buglossoides arvensis, soil, 90 g ai/ha, read-out: Measured fresh weight inhibition rate (%)",78.3%
same,inhibition at 180 g/ha,"[5]; Buglossoides arvensis, soil, 180 g ai/ha, read-out: Measured fresh weight inhibition rate (%)",89.9%
same,Measured fresh weight survival rate (%) - E,[6]; 11.25 g ai/ha,82.4%
same,Measured fresh weight survival rate (%) - E,[6]; 22.5 g ai/ha,68.2%
same,Measured fresh weight survival rate (%) - E,[6]; 45 g ai/ha,38.4%
same,Measured fresh weight survival rate (%) - E,[6]; 90 g ai/ha,8.2%
same,Measured fresh weight survival rate (%) - E,[6]; 180 g ai/ha,4.7%
same,inhibition at 22.5 g/ha,"[6]; Solanum nigrum, soil, read-out: Measured fresh weight inhibition rate (%)",31.8%
same,inhibition at 11.25 g/ha,"[6]; Solanum nigrum, soil, 11.25 g ai/ha, read-out: Measured fresh weight inhibition rate (%)",17.6%
same,inhibition at 45 g/ha,"[6]; Solanum nigrum, soil, 45 g ai/ha, read-out: Measured fresh weight inhibition rate (%)",61.6%
same,inhibition at 90 g/ha,"[6]; Solanum nigrum, soil, 90 g ai/ha, read-out: Measured fresh weight inhibition rate (%)",91.8%
same,inhibition at 180 g/ha,"[6]; Solanum nigrum, soil, 180 g ai/ha, read-out: Measured fresh weight inhibition rate (%)",95.3%
